Reference: paper PMC7318308, “A Novel Synthetic Dual Agonistic Liposomal TLR4/7 Adjuvant Promotes Broad Immune Responses in an Influenza Vaccine With Minimal Reactogenicity” (Frontiers in Immunology, 2020)

Columns and labels:
[1] = test system: HEK-Blue mTLR4 reporter cells; experiment: MTT cell viability, murine TLR4 reporter cells; format: cell-based; settings: concentrations below 10 µM, MTT
Method: (§1) TLR4/NF-κB activation was assessed using HEK-Blue™ hTLR4 and HEK-Blue™ mTLR4 (InvivoGen). The cells were treated with 1Z105 and 2B182C (2-fold serial dilutions starting from 10 μM) for 20 h. NF-κB inducible secreted embryonic alkaline phosphatase (SEAP) protein in the culture supernatant was measured according to manufacturer's protocol. To evaluate cell viability, 0.5 mg/mL 3-[4,5-dimethylthiazol-2-yl]-2,5-dipheyl tetrazolium bromide (MTT, Thermo Fisher Scientific) solution was added to each well and incubated at 37°C. Six hours later, formazan crystals were lysed with lysis buffer (15% SDS and 0.12% 12 N HCl) and the absorbance was measured at 570 nm using 650 nm as a reference with a plate reader (Tecan, Switzerland).
Human TLR4 reporter cells Murine TLR4 reporter cells
[Compound] 1 μM 10 [Compound] 1 μM 10
Supplementary Figure 1. Dose response curves for cell viability (toxicity) of lead compounds in human and murine TLR4-NF-κB reporter cells. Cellular toxicity evaluated by MTT assay is presented as % viability normalized to vehicle (0.5% DMSO) as 100%. While 1Z105 had minimal toxicity in both hTLR4 and mTLR4 reporter cells (HEK-BlueTM hTLR4 and HEK-BlueTM mTLR4, […]
(also on this page, place not known: %Relative (Normalized 100%) 101101 viability vehicle as to)

[2] = biological target: T1, mouse TLR4 (Mus musculus, UniProt Q9JHF9+Q9QUK6); experiment: TLR4/NF-κB reporter cell assay (SEAP), HEK-Blue mTLR4; format: cell-based; settings: for murine TLR4 agonistic activity (in words): AUC normalized to 2B110 as 100%, Figure 1C
T1 construct: host or cells: HEK-Blue mTLR4 (HEK293-derived NF-κB/SEAP reporter cells)
T1 sequence (Q9QUK6 26-835): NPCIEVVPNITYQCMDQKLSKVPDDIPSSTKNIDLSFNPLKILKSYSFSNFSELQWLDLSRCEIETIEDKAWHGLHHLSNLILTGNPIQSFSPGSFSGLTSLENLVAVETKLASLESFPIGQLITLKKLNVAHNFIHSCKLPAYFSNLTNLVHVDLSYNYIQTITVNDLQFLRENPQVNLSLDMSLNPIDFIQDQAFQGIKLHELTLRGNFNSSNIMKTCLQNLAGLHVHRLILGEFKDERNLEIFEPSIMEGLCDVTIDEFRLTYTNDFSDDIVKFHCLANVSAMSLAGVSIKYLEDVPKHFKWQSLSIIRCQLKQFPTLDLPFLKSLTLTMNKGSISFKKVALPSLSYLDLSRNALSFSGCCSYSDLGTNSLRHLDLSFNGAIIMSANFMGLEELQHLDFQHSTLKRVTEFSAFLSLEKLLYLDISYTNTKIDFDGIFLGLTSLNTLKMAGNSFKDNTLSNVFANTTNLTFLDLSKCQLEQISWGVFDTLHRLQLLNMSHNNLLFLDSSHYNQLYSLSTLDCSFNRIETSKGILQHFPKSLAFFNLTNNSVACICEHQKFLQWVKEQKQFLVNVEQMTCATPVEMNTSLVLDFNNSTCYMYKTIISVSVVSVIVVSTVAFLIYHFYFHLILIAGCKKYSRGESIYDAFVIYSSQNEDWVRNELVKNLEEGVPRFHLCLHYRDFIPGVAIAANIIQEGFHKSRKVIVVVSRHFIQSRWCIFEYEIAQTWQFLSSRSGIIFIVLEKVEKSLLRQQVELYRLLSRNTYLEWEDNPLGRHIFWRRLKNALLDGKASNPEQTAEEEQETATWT
T1 sequence (Q9JHF9 19-160): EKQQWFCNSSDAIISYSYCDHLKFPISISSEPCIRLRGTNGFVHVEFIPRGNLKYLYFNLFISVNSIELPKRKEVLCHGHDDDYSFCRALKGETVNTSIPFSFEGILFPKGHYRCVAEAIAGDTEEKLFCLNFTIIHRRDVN
Method: (§2) Figure 1 Structure-activity relationship studies in TLR4 agonistic pyrimidoindoles. (A) Syntheses of C8-alkynyl and C8-alkyl analogs. (B) Syntheses of C8-aryl analogs. (C) Scatter plot of hTLR4 and mTLR4 agonistic activity in TLR4-NF-κB HEK reporter cells (HEK-Blue™ hTLR4 and HEK-Blue™ mTLR4, respectively). NF-κB inducible NF-κB SEAP levels in culture supernatants were measured according to manufacturer's protocol. The TLR4 agonistic potency was evaluated as area under the curve (AUC) calculated for dose response curve using 2-fold serial dilutions from 10 μM, and normalized to the AUC for 2B110 as 100% on both axes. […] The color of each point is based on cell viability in TLR4-NF-κB reporter cells for compounds evaluated at 5 μM concentration. Viability data was normalized to vehicle control (Vehicle OD570−650 = 0.58 ± 0.01). (D) Structures of the lead compounds with differences at C8 substitution highlighted in blue.
(§3) Titration curves of 1Z105 and derivatives were used to assess their potency in stimulating human and mouse TLR4 response using HEK NF-κB reporter cells (HEK-Blue™ hTLR4 and mTLR4, respectively). The areas under the curve for dose response curves relative to vehicle (0.5% DMSO) were normalized to the greatest activity as 100% of 2B110 for both assays (Figure 1C). The compounds were also tested for in vitro toxicity by MTT assay (Figure 1C, Supplementary Figure 1).
as §1

[3] = test system: TLR4-NF-κB reporter cells; experiment: MTT cell viability in TLR4-NF-κB reporter cells; format: cell-based; settings: for toxicity in cell-based MTT assay (in words): viability at 5 μM in Figure 1C, normalized to vehicle
Method: as §2, §1

[4] = biological target: T2, human TLR4 (Homo sapiens, UniProt O00206+Q9Y6Y9); experiment: TLR4/NF-κB reporter cell assay (SEAP), HEK-Blue hTLR4; format: cell-based; settings: for human TLR4 agonistic activity (in words): AUC normalized to 2B110 as 100%, Figure 1C
T2 construct: host or cells: HEK-Blue hTLR4 (HEK293-derived NF-κB/SEAP reporter cells)
T2 sequence (O00206 24-839): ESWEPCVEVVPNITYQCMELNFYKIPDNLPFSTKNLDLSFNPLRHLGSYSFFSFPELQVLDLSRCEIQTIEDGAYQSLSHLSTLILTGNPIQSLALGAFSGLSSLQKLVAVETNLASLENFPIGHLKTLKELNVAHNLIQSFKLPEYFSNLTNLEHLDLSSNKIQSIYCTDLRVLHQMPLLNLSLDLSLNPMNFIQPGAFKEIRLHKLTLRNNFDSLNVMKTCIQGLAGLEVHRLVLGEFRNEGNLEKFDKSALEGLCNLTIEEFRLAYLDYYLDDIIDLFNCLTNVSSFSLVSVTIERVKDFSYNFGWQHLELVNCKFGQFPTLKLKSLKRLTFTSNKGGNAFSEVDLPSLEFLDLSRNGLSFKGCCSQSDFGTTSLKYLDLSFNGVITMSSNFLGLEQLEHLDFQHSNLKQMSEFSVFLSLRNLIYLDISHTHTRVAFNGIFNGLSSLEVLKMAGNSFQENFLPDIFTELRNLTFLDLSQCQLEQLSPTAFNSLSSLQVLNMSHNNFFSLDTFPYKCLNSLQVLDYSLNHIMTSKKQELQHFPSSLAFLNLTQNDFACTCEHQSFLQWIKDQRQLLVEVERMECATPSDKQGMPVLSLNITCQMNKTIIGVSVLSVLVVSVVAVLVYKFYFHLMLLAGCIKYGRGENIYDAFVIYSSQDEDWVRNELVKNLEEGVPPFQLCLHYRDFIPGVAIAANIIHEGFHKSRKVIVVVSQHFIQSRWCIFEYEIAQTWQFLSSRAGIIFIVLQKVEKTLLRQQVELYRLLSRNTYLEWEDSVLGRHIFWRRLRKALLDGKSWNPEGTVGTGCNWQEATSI
T2 sequence (Q9Y6Y9 17-160 limits assumed): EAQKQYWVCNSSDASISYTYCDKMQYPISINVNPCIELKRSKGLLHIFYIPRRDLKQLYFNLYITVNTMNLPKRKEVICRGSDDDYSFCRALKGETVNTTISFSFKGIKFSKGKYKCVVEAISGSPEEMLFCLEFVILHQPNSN
Method: as §2, §3, §1

[5] = test system: TLR4; experiment: TLR4 activity in HEK NF-κB reporter cells, species not told apart in the text; format: cell-based, human and mouse; settings: HEK-Blue hTLR4 and mTLR4, Figure 1C
Method: as §2, §3, §1

[6] = 2-fold serial dilutions from 10 μM, the value taken as 100% for normalisation

Cn1c2ccc(-c3ccccc3)cc2c2nc(SCC(=O)NC3CCCCC3)n(-c3ccccc3)c(=O)c21 [2B110]
toxicity at lower concentrations, mTLR4 reporter cells (in words) [1]: more toxic compared to 8s
AUC of dose response curve, mTLR4 reporter cells [2, 6]: 28.43 ± 5.49 units
murine TLR4 agonistic activity (in words) [2]: high TLR4 stimulatory potency
toxicity at 10 µM (in words) ([3]; 10 µM, MTT, Supplementary Figure 1): exhibited toxicity
toxicity in cell-based MTT assay (in words) [3]: slightly higher toxicity in MTT assays than did 2B182C
AUC of dose response curve, hTLR4 reporter cells [4, 6]: 14.95 ± 1.95
human TLR4 agonistic activity (in words) [4]: high TLR4 stimulatory potency

C#Cc1ccc2c(c1)c1nc(SCC(=O)NC3CCCCC3)n(-c3ccccc3)c(=O)c1n2C [6a]
TLR4 activity (species not told apart) [5]: reduction in TLR4 activity

CCCC#Cc1ccc2c(c1)c1nc(SCC(=O)NC3CCCCC3)n(-c3ccccc3)c(=O)c1n2C [6b]
TLR4 activity (species not told apart) [5]: highest level of TLR4 activation

CCCCCC#Cc1ccc2c(c1)c1nc(SCC(=O)NC3CCCCC3)n(-c3ccccc3)c(=O)c1n2C [6c]
TLR4 activity (species not told apart) [5]: reduction in TLR4 activity

CCCCCCCCCCC#Cc1ccc2c(c1)c1nc(SCC(=O)NC3CCCCC3)n(-c3ccccc3)c(=O)c1n2C [6d]
TLR4 activity (species not told apart) [5]: completely inactive

CCc1ccc(-c2ccc3c(c2)c2nc(SCC(=O)NC4CCCCC4)n(-c4ccccc4)c(=O)c2n3C)cc1 [8d]
toxicity in cell-based MTT assay (in words) [3]: relatively high toxicity
TLR4 activity (species not told apart) [5]: maintaining TLR4 activity

CCCCc1ccc(-c2ccc3c(c2)c2nc(SCC(=O)NC4CCCCC4)n(-c4ccccc4)c(=O)c2n3C)cc1 [8e]
toxicity in cell-based MTT assay (in words) [3]: relatively high toxicity
TLR4 activity (species not told apart) [5]: maintaining TLR4 activity

Cn1c2ccc(-c3cccc(-c4ccccc4)c3)cc2c2nc(SCC(=O)NC3CCCCC3)n(-c3ccccc3)c(=O)c21 [8f]
human TLR4 agonistic activity (in words) [4]: dramatic loss of human TLR4 activity

COc1cccc(-c2ccc3c(c2)c2nc(SCC(=O)NC4CCCCC4)n(-c4ccccc4)c(=O)c2n3C)c1 [8h]
human TLR4 agonistic activity (in words) [4]: dramatic loss of human TLR4 activity

Cn1c2ccc(-c3cccc(N)c3)cc2c2nc(SCC(=O)NC3CCCCC3)n(-c3ccccc3)c(=O)c21 [8k]
murine TLR4 agonistic activity (in words) [2]: significant loss
human TLR4 agonistic activity (in words) [4]: significant loss

Cn1c2ccc(-c3cccc(C(=O)O)c3)cc2c2nc(SCC(=O)NC3CCCCC3)n(-c3ccccc3)c(=O)c21 [8l]
murine TLR4 agonistic activity (in words) [2]: significant loss
human TLR4 agonistic activity (in words) [4]: significant loss

Cn1c2ccc(-c3cccc(O)c3)cc2c2nc(SCC(=O)NC3CCCCC3)n(-c3ccccc3)c(=O)c21 [8m]
murine TLR4 agonistic activity (in words) [2]: significant loss
human TLR4 agonistic activity (in words) [4]: significant loss

Cn1c2ccc(-c3cccc(C#N)c3)cc2c2nc(SCC(=O)NC3CCCCC3)n(-c3ccccc3)c(=O)c21 [8n]
murine TLR4 agonistic activity (in words) [2]: retained murine TLR4 activity
human TLR4 agonistic activity (in words) [4]: less potent than 2B110

Cn1c2ccc(-c3cccc([N+](=O)[O-])c3)cc2c2nc(SCC(=O)NC3CCCCC3)n(-c3ccccc3)c(=O)c21 [8o]
murine TLR4 agonistic activity (in words) [2]: retained murine TLR4 activity
human TLR4 agonistic activity (in words) [4]: less potent than 2B110
